This assay addresses T1, human OX2R (Homo sapiens, UniProt O43614).
T1 construct: expressed in transfected cells; host or cells: CHO (Chinese hamster ovary) cells, grown under G418 selection
T1 sequence (O43614 1-444): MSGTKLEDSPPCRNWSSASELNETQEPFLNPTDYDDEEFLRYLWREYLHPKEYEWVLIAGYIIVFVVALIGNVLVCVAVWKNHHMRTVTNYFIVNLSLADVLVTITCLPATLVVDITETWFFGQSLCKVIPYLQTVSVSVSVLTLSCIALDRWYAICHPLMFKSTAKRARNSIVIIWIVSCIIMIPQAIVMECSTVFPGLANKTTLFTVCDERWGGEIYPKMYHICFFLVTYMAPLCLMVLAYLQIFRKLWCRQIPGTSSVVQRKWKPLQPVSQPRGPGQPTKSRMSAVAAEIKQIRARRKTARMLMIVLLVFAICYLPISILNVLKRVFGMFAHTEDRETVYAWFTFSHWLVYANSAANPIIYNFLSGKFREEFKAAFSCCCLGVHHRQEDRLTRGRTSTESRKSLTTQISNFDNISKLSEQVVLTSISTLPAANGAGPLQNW
Put plainly: IP-One (IPOne) orexin receptor agonist assay in CHO cells expressing human OX2R. It counts as cell-based. As to conditions: for EC50: CHO cells expressing human OX2R, IP-One IP-1 detection, 2 hours incubation, four parameter logistic fit, read-out: OX2R Potency, EC50; for % of reference agonist maximal effect: human OX2R, percentage of sample raw value/mean max effect (reference compound at 1 uM with 100% activity). In short, it runs like this: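 CHO cells stably expressing human OX2R were stimulated with compound (10-point ½-log dilutions) for 2 h at 37 °C. IP-1 accumulation was read by HTRF (IP-One, 665/620 nm). EC50 from a four-parameter fit; % effect relative to 1 μM reference agonist control.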

With `CCc1c[nH]nc1[C@H]1CCCN(C(=O)OC)[C@H]1CO[C@H]1CC[C@@H](c2ccccc2)CC1` (single isomer, unassigned) [Example 43], the 50% effective concentration (EC50) stood at 163 nM and the “% of reference agonist maximal effect” value is recorded as 100.4%.
The like results for `COC(=O)N1CCC[C@H](c2n[nH]cc2C#N)[C@@H]1CO[C@H]1CC[C@@H](c2ccccc2)CC1` (single isomer, unassigned) [Example 51] were, in that order, 227 nM and 99.0%.
Consider `COC(=O)N1CCC[C@H](c2[nH]ncc2C(F)(F)F)[C@@H]1CO[C@H]1CC[C@@H](c2ccccc2)CC1` (relative stereo) [Example 25, methyl (CIS)-2-((((CIS)-4-phenylcyclohexyl)oxy)methyl)-3-(4-(trifluoromethyl)-1H-pyrazol-5-yl)piperidine-1-carboxylate], for which the EC50 is 879 nM and the “% of reference agonist maximal effect” value was found to be 92.8%.
The like results for `CCNC(=O)N1CCC[C@@H](c2cc[nH]n2)[C@H]1CO[C@H]1CC[C@@H](c2ccccc2)CC1` [Example 19, (2S,3R)-N-ethyl-2-((((CIS)-4-phenylcyclohexyl)oxy)methyl)-3-(1H-pyrazol-3-yl)piperidine-1-carboxamide] were, in that order, 4800 nM and 63.1%.
The like results for `COC(=O)N1CCC[C@H](c2n[nH]cc2CO)[C@@H]1CO[C@H]1CC[C@@H](c2ccccc2)CC1` [Example 53] were, in that order, 104 nM and 100.5%.
In the case of `CCNC(=O)N1CCC[C@H](c2ccn[nH]2)[C@@H]1COC1CCC(C(C)C)CC1` (relative stereo) [Example 3, (CIS)-N-ethyl-2-(((4-isopropylcyclohexyl)oxy)methyl)-3-(1H-pyrazol-5-yl)piperidine-1-carboxamide], the EC50 turned out to be 676 nM and the “% of reference agonist maximal effect” value turned out to be 99.9%.
The like results for `COC(=O)N1CCCC(c2nc(O)sc2Cl)C1COC1CCC(c2ccccc2)CC1` (single isomer, unassigned) [Example 68, Methyl 3-(5-chloro-2-hydroxythiazol-4-yl)-2-(((4-phenylcyclohexyl)oxy)methyl)piperidine-1-carboxylate] were, in that order, 6980 nM and 27.6%.
The like results for `O=C(OCC(F)F)N1CCCC(c2ccn[nH]2)C1CO[C@H]1CC[C@@H](c2c(F)ccc(F)c2F)CC1` (stereo partly drawn) [Example 35, 2,2-Difluoroethyl 3-(1H-pyrazol-5-yl)-2-((((CIS)-4-(2,3,6-trifluorophenyl)cyclohexyl)oxy-)methyl)piperidine-1-carboxylate] were, in that order, 542 nM and 97.9%.
`CC(C)COC(=O)N1CCC[C@H](c2cc[nH]n2)[C@@H]1CO[C@H]1CC[C@@H](c2ccccc2)CC1` (relative stereo) [Example 105, isobutyl (CIS)-2-((((CIS)-4-phenylcyclohexyl)oxy)methyl)-3-(1H-pyrazol-3-yl)piperidine-1-carboxylate]: the half-maximal effective concentration (EC50) is 3940 nM and the “% of reference agonist maximal effect” value was 64.9%.
The like results for `COC(=O)N1CCC[C@H](c2nc(O)ccc2C)[C@@H]1CO[C@H]1CC[C@@H](c2ccccc2)CC1` (relative stereo) [Example 66, methyl (CIS)-3-(6-hydroxy-3-methylpyridin-2-yl)-2-((((CIS)-4-phenylcyclohexyl)oxy)methyl)piperidine-1-carboxylate] were, in that order, 808 nM and 98.8%.
The like results for `COC(=O)N1CCC[C@H](c2n[nH]cc2C)[C@@H]1CO[C@H]1CC[C@@H](c2cccc(F)c2)CC1` (relative stereo) [Example 15, methyl (CIS)-2-((((CIS)-4-(3-fluorophenyl)cyclohexyl)oxy)methyl)-3-(4-methyl-1H-pyrazol-3-yl)piperidine-1-carboxylate] were, in that order, 117 nM and 99.3%.
On to `C#CCCC(=O)N1CCC[C@H](c2cc[nH]n2)[C@@H]1CO[C@H]1CC[C@@H](C(C)C)CC1` (relative stereo) [Example 85, 1-((CIS)-2-((((CIS)-4-isopropylcyclohexyl)oxy)methyl)-3-(1H-pyrazol-3-yl)piperidin-1-yl)pent-4-yn-1-one], for which the EC50 stood at 7580 nM and the “% of reference agonist maximal effect” value is 87%.
As for `CC[C@H](C)COC(=O)N1CCC[C@H](c2cc[nH]n2)[C@@H]1CO[C@H]1CC[C@@H](c2ccccc2)CC1` [Example 107, (S)-2-methylbutyl (CIS)-2-((((CIS)-4-phenylcyclohexyl)oxy)methyl)-3-(1H-pyrazol-3-yl)piperidine-1-carboxylate], the concentration for a half-maximal effect (EC50) is 5090 nM and the “% of reference agonist maximal effect” value is given as 52.4%.
With `O=C(Oc1cccnc1)N1CCC[C@H](c2cc[nH]n2)[C@@H]1CO[C@H]1CC[C@@H](c2ccccc2)CC1` (relative stereo) [Example 101, pyridin-3-yl (CIS)-2-((((CIS)-4-phenylcyclohexyl)oxy)methyl)-3-(1H-pyrazol-3-yl)piperidine-1-carboxylate], the EC50 was 2510 nM and the “% of reference agonist maximal effect” value was found to be 77.7%.
In the case of `CC(F)(F)COC(=O)N1CCC[C@H](c2cc[nH]n2)[C@@H]1CO[C@H]1CC[C@@H](c2ccccc2)CC1` (relative stereo) [Example 110, 2,2-difluoropropyl (CIS)-2-((((CIS)-4-phenylcyclohexyl)oxy)methyl)-3-(1H-pyrazol-3-yl)piperidine-1-carboxylate], the EC50 came out at 6230 nM and the “% of reference agonist maximal effect” value was 58.5%.
The like results for `CCNC(=O)N1CCCC(c2nc[nH]n2)C1CO[C@H]1CC[C@@H](C(C)C)CC1` (single isomer, unassigned) [Example 62, N-ethyl-2-((((CIS)-4-isopropylcyclohexyl)oxy)methyl)-3-(1H-1,2,4-triazol-3-yl)piperidine-1-carboxamide] were, in that order, more than 10000 nM and 11.9%.
The like results for `O=C(C1CC1)N1CCC[C@H](c2cc[nH]n2)[C@@H]1CO[C@H]1CC[C@@H](c2ccccc2)CC1` (single isomer, unassigned) [Example 20, cyclopropyl((CIS)-2-((((CIS)-4-phenylcyclohexyl)oxy)methyl)-3-(1H-pyrazol-3-yl)piperidin-1-yl)methanone] were, in that order, 682 nM and 97.4%.
The like results for `O=C(OCC(F)(F)F)N1CCCC(c2ccn[nH]2)C1CO[C@H]1CC[C@@H](c2c(F)ccc(F)c2F)CC1` (relative stereo) [Example 31, 2,2,2-Trifluoroethyl 3-(1H-pyrazol-5-yl)-2-((((CIS)-4-(2,3,6-trifluorophenyl)cyclohexyl)-oxy)methyl)piperidine-1-carboxylate] were, in that order, 7440 nM and 72.7%.
As to `CCNC(=O)N1CCC[C@H](c2n[nH]cc2C)[C@@H]1CO[C@H]1CC[C@@H](c2cccc(F)c2)CC1` (racemic) [Example 10, (CIS)-N-ethyl-2-((((CIS)-4-(3-fluorophenyl)cyclohexyl)oxy)methyl)-3-(4-methyl-1H-pyrazol-3-yl)piperidine-1-carboxamide], the EC50 amounted to 4.8 nM and the “% of reference agonist maximal effect” value is on record as 100.8%.
The like results for `O=C(OCC(F)F)N1CCC[C@H](c2cc[nH]n2)[C@@H]1CO[C@H]1CC[C@@H](c2ccccc2)CC1` (relative stereo) [Example 96, 2,2-difluoroethyl (CIS)-2-((((CIS)-4-phenylcyclohexyl)oxy)methyl)-3-(1H-pyrazol-3-yl)piperidine-1-carboxylate] were, in that order, 754 nM and 91.3%.
The like results for `CCNC(=O)N1C(C)CCC(c2ccn[nH]2)C1COC1CCC(C(C)C)CC1` (stereo not drawn) [Example 38, N-ethyl-2-(((4-isopropylcyclohexyl)oxy)methyl)-6-methyl-3-(H-pyrazol-5-yl)piperidine-1-carboxamide] were, in that order, 241 nM and 95.0%.
The like results for `CCNC(=O)N1CCC[C@@H](c2ccn[nH]2)[C@H]1CO[C@H]1CC[C@@H](C(C)C)CC1` (single isomer, unassigned) [Example 5] were, in that order, 3190 nM and 99.6%.
With `O=C(OCC(F)(F)F)N1CCC[C@H](c2cc[nH]n2)[C@@H]1CO[C@H]1CC[C@@H](c2ccccc2)CC1` (relative stereo) [Example 102, 2,2,2-trifluoroethyl (CIS)-2-((((CIS)-4-phenylcyclohexyl)oxy)methyl)-3-(1H-pyrazol-3-yl)piperidine-1-carboxylate], the EC50 turned out to be 2930 nM and the “% of reference agonist maximal effect” value came out at 40.7%.
The like results for `COC(=O)N1CCC[C@@H](c2n[nH]cc2CO)[C@H]1CO[C@H]1CC[C@@H](c2ccccc2)CC1` (single isomer, unassigned) [Example 54] were, in that order, more than 10000 nM and 15.7%.

These data come from patent publication US12552767B2, “3-heteroaryl pyrrolidine and piperidine orexin receptor agonists” (Merck Sharp & Dohme LLC, priority 2020, dated 2026).
